# In article PMC10732257 (Oncotarget, 2023):
# Experiments:
# [1] = tested on: human hematological malignancy-derived cell lines; test: Cell viability / antiproliferative activity by CellTiter Glo; type: cell-based; details: in 7 of the 10 lines tested, 24 hours of exposure
# Procedure: Figure 3 Effect of GFH009 on cell proliferation in assorted human hematologic malignancy cell lines. Cell viability IC50s for GFH009 on human hematological malignancy-derived cell lines after 24 hours of exposure to the agent were determined using CellTiter Glo.
# The antiproliferative activity of GFH009 was assessed in cultured cell lines derived from human hematological malignancies over a period of 24-hour in vitro assay readouts. Enitociclib was used as a comparator for experimental validation (provided by MedChem Express, Monmouth, NJ, USA). Cell growth was analyzed by CellTiter Glo in 96-well plates and detected via chemiluminescent signal. The absolute inhibitory concentration of 50% (AbsIC50 values of the drug were calculated by fitting the drug inhibition rate curve with the “log (inhibitor) versus response – variable slope (4 parameters)” model by using the Prism GraphPad 6 for Windows v6.01 software.
# CDK14/cyclin Y = molecular target: T1, CDK14/cyclin Y (Homo sapiens, UniProt O94921); test: CDK family off-target kinase activity (Eurofins); type: biochemical
# T1 construct: purchased Eurofins Pharma Discovery Services UK Ltd
# T1 sequence (O94921 whole entry): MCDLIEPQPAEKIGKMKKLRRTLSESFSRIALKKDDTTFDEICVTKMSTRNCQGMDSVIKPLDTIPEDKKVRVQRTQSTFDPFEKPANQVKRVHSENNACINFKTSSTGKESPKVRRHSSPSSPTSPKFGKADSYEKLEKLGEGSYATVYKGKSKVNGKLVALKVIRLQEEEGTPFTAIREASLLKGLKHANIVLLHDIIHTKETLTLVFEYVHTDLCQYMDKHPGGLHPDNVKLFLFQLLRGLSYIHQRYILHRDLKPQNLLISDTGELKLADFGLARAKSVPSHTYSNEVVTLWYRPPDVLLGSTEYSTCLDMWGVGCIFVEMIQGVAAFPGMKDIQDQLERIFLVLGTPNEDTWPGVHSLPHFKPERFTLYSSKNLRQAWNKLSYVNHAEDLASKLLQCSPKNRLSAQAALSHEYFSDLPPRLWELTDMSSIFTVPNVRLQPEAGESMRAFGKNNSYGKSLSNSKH
# T1 sequence (Q8ND76 whole entry partner): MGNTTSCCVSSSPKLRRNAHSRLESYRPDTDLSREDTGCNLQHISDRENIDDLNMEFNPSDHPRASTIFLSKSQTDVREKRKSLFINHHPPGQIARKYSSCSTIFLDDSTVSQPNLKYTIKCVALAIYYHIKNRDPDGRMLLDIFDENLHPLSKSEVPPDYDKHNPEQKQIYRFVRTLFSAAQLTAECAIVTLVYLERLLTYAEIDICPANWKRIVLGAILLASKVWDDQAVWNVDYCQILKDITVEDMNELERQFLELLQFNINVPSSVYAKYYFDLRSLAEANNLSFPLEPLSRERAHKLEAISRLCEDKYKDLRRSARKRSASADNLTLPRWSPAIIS
# Procedure: (§1) GFH009 inhibition activity against the CDK9/cyclin T1 complex as well as off-target CDK family reactivity were assayed by Eurofins Pharma Discovery Services UK Ltd., (Dundee, UK). Determination of off-target inhibition of other kinases was conducted by DiscoverX LeadHunter Discovery Services (Freemont, CA, USA.) GFH009 reactivity to GPCR family members was assayed by Wuxi AppTech (Shanghai, China).
# (§2) The pharmacodynamic and mechanistic foundation for the
# (§3) CDK9 inhibitor for the treatment of hematologic malignancies
# (§4) Supplementary Table 1: Inhibitory action of GFH009 on other CDK family members
# (§5) Various CDK/ Remaining enzymatic activity (%) after
# (§6) cognate cyclin pairs tested exposure to GFH009 at a concentration of Selectivity vs. CDK9
# (§7) (also on this page, place not known: www.oncotarget.com Oncotarget, Materials Supplementary)
# (§8) (1 picture or pasted object on this page, not shown here)
# CDK1/cyclin B = molecular target: T2, CDK1/cyclin B (Homo sapiens, UniProt P06493); test: CDK family off-target kinase activity (Eurofins); type: biochemical
# T2 construct: purchased Eurofins Pharma Discovery Services UK Ltd
# T2 sequence (P06493 whole entry): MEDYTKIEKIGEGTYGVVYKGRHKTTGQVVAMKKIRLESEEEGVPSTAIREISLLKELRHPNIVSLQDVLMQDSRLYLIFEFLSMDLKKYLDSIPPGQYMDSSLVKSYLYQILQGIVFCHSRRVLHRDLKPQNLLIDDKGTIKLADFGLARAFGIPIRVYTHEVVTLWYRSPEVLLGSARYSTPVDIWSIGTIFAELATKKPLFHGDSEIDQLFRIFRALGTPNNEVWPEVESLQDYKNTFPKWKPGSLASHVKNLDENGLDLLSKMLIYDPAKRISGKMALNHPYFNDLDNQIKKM
# T2 sequence (P14635 whole entry partner): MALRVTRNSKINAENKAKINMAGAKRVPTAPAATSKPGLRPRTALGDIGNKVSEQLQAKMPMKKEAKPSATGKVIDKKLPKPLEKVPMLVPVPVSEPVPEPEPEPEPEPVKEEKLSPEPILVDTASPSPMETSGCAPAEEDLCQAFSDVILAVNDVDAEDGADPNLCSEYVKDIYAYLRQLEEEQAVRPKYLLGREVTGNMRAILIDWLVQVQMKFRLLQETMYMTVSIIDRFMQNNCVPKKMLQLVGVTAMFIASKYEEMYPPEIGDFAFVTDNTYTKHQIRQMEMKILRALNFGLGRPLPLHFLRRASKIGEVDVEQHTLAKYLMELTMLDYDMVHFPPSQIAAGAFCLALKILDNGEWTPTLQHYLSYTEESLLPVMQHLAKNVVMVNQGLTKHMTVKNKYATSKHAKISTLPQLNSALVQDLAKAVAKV
# Procedure: as §1, §2, §3, §4, §5, §6, §7, §8
# CDK3/cyclin E = molecular target: T3, CDK3/cyclin E (Homo sapiens, UniProt Q00526); test: CDK family off-target kinase activity (Eurofins); type: biochemical
# T3 construct: purchased Eurofins Pharma Discovery Services UK Ltd
# Procedure: as §1, §2, §3, §4, §5, §6, §7, §8
# CDK5/p35 = molecular target: T4, CDK5/p35 (Homo sapiens, UniProt Q00535); test: CDK family off-target kinase activity (Eurofins); type: biochemical
# T4 construct: purchased Eurofins Pharma Discovery Services UK Ltd
# T4 sequence (Q00535 whole entry): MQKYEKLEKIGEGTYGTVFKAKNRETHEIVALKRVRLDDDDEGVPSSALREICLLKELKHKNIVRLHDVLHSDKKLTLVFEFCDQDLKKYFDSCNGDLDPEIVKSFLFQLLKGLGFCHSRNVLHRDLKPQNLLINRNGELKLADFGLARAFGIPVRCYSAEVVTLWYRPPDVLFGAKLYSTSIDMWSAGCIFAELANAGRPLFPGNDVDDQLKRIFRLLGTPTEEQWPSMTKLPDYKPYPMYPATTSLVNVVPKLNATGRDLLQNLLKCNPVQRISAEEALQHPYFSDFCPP
# T4 sequence (Q15078 2-307 partner limits assumed): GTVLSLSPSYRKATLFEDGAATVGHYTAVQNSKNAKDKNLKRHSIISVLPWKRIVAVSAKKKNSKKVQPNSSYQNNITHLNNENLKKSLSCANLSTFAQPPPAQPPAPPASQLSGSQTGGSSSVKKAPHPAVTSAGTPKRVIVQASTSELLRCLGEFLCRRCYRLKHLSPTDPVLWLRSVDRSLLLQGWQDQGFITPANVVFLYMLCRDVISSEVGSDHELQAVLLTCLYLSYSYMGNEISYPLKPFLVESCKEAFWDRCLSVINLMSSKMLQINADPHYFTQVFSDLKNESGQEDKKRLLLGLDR
# Procedure: as §1, §2, §3, §4, §5, §6, §7, §8
# CDK2/cyclin E = molecular target: T5, CDK2/cyclin E (Homo sapiens, UniProt P24941); test: CDK family off-target kinase activity (Eurofins); type: biochemical
# T5 construct: purchased Eurofins Pharma Discovery Services UK Ltd
# Procedure: as §1, §2, §3, §4, §5, §6, §7, §8
smiles,measurement,setting,value
COC[C@@H](C)NC1CCC(Nc2cc(-c3csc(NCC4(C#N)CCOCC4)n3)c(Cl)cn2)CC1 (stereo partly shown) [GFH009],IC50,[1],< 200 nM
same,Selectivity vs. CDK9,CDK14/cyclin Y,> 100
same,Remaining enzymatic activity (%) after exposure to GFH009,CDK14/cyclin Y; 1 µM,70%
same,Remaining enzymatic activity (%) after exposure to GFH009,CDK14/cyclin Y; 10 µM,39%
same,Selectivity vs. CDK9,CDK1/cyclin B,> 1000
same,Remaining enzymatic activity (%) after exposure to GFH009,CDK1/cyclin B; 1 µM,97%
same,Remaining enzymatic activity (%) after exposure to GFH009,CDK1/cyclin B; 10 µM,50%
same,Selectivity vs. CDK9,CDK3/cyclin E,> 100
same,Remaining enzymatic activity (%) after exposure to GFH009,CDK3/cyclin E; 1 µM,74%
same,Remaining enzymatic activity (%) after exposure to GFH009,CDK3/cyclin E; 10 µM,39%
same,Selectivity vs. CDK9,CDK5/p35,> 100
same,Remaining enzymatic activity (%) after exposure to GFH009,CDK5/p35; 1 µM,66%
same,Remaining enzymatic activity (%) after exposure to GFH009,CDK5/p35; 10 µM,43%
same,Selectivity vs. CDK9,CDK2/cyclin E,> 100
same,Remaining enzymatic activity (%) after exposure to GFH009,CDK2/cyclin E; 1 µM,63%
same,Remaining enzymatic activity (%) after exposure to GFH009,CDK2/cyclin E; 10 µM,27%
